These are literature values, as cited in US20080260818A1, “Controlled Absorption of Statins in the Intestine” (DEXCEL PHARMA TECHNOLOGIES LTD., priority 2005, published 2008).

Molecules are shown by their SMILES.

One series concerns the target T1, HMG-CoA reductase (Homo sapiens, UniProt P04035).
T1 sequence (P04035 1-888): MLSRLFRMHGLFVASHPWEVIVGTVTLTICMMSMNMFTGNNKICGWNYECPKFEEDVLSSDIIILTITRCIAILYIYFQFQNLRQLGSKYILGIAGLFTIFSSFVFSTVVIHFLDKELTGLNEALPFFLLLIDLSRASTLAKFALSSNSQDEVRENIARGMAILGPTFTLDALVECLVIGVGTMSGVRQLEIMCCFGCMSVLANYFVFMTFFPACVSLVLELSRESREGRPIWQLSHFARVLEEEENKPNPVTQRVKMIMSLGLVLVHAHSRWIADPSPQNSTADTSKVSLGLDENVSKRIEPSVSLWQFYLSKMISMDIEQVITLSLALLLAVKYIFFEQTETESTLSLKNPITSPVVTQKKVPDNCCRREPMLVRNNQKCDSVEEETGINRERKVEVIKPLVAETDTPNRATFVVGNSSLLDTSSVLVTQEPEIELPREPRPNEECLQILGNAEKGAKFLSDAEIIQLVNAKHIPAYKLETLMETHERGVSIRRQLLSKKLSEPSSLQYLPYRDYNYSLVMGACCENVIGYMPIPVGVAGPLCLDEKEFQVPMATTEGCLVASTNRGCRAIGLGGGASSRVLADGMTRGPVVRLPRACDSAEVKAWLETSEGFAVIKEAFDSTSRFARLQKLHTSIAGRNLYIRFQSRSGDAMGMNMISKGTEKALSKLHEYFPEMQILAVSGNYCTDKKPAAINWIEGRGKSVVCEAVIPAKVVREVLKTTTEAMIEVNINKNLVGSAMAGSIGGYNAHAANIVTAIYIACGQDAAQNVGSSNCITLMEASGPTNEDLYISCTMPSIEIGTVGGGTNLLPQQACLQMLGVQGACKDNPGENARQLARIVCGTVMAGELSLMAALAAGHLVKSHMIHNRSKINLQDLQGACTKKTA
Particulars: considering the beta-hydroxy acid form as the drug.

The subject of series [1] is plasma proteins, primarily albumin. The settings on record: Simvastatin and its active acid forms.

On to `CCC(C)(C)C(=O)OC1CC(C)(O)C=C2C=CC(C)C(CCC3CC(O)CC(=O)O3)C21` (stereo not drawn) [6-beta-hydroxy simvastatin], for which the “HMG-CoA reductase activity retained” value on HMG-CoA reductase is listed as roughly 50%.

`CCC(C)(C)C(=O)OC1CC(CO)C=C2C=CC(C)C(CCC3CC(O)CC(=O)O3)C21` (stereo not drawn) [6-beta-hydroxymethyl]: at HMG-CoA reductase, the “HMG-CoA reductase activity retained” value is listed as “approximately 40%”. Take `CCC(C)(C)C(=O)O[C@H]1C[C@@H](C)C=C2C=C[C@H](C)[C@H](CC[C@@H]3C[C@@H](O)CC(=O)O3)[C@H]21` [simvastatin]: the “bound to plasma proteins, primarily to albumin” value in series [1] is on record as “more than 95%”.
